From patent US6358293B1, “Methods for rendering high concentrations of manganese safe for plant growth and formulations for same” (The Hampshire Chemical Corporation, priority 1999, dated 2002)

What was measured:
Geranium [1] = experiment: Growth promotion versus conventionally cultured and single-additive controls; type: in vivo
Coleus [2] = experiment: as above; type: in vivo
Cabbage = experiment: Effective root application doses; type: in vivo; conditions: 10 ml per plant
Procedure: (§1) The following are exemplary ranges of effective root application doses based on 10 ml per plant.

Coleus [3] = experiment: Effective root application doses; type: in vivo; conditions: 10 ml per plant
Procedure: as §1

Geranium [4] = experiment: Effective root application doses; type: in vivo; conditions: 10 ml per plant
Procedure: as §1

New Guinea Impatiens [5] = experiment: Effective foliar application doses; type: in vivo; conditions: 1 to 4 ml per plant
Procedure: (§2) The following are exemplary ranges of effective foliar application doses based on 1 to 4 ml per plant.

Corn = experiment: Effective foliar application doses; type: in vivo; conditions: 1 to 4 ml per plant
Procedure: as §2

New Guinea Impatiens [6] = experiment: Growth promotion versus conventionally cultured and single-additive controls; type: in vivo
plants = conditions: conventional conditions of plant culture, especially under acidic conditions; cited from earlier work

Compound | effect of additive on plant growth (Geranium [1]) | effect of additive on plant growth (Coleus [2]) | effective root application dose, MeG (Cabbage; MeG applied with Mn) | effective root application dose, MeG (Coleus [3]; MeG applied with Mn) | effective root application dose, MeG (Geranium [4]; MeG applied with Mn) | effective foliar application dose, MeG (New Guinea Impatiens [5]; MeG applied with Mn) | effective foliar application dose, MeG (Corn; MeG applied with Mn) | effect of additive on plant growth (New Guinea Impatiens [6]) | concentration at which manganese is phytotoxic to plants (plants) | effective root application dose, Mn (Cabbage; Mn applied with MeG) | effective root application dose, Mn (Coleus [3]; Mn applied with MeG) | effective root application dose, Mn (Geranium [4]; Mn applied with MeG) | effective foliar application dose, Mn (New Guinea Impatiens [5]; Mn applied with MeG) | effective foliar application dose, Mn (Corn; Mn applied with MeG)
CO[C@H]1OC(CO)[C@H](O)[C@@H](O)[C@@H]1O (some centres unmarked) [MeG, methyl glucoside] | retarded growth | retarded growth | 10 to 30 mM | 5 to 50 mM | 10 to 100 mM | 200 to 500 mM | 5 to 25 mM | retarded growth | – | – | – | – | – | –
[Mn+2] [Mn, manganese] | phytotoxic | phytotoxic | – | – | – | – | – | phytotoxic | greater than 500 ppb | 2 to 15 ppm | 2 to 7 ppm | 2 to 15 ppm | 10 to 25 ppm | 10 to 25 ppm
